In patent US20170050957A1, “4-AMINO-6-(HETEROCYCLIC)PICOLINATES AND 6-AMINO-2-(HETEROCYCLIC)PYRIMIDINE-4-CARBOXYLATES AND THEIR USE AS HERBICIDES” (Dow AgroSciences LLC, priority 2013, published 2017):
Where two headings read alike, the source gives them in different places.

Tests used:
[1] = system: Key Broadleaf Weed and Crop Species; assay: Post-emergent Test II herbicidal activity (Table 15); format: in vivo; conditions: post-emergence, 336 h, 14 d; for pest or weed control at 35 g/ha: 35 g ai/ha; for pest or weed control at 70 g/ha: 70 g ai/ha; for pest or weed control at 140 g/ha: 140 g ai/ha
Outline: (§1)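 Post-emergence spray; seedlings 7-21 d old, 1st-2nd true leaf; 187 L/ha; serial rates 1×-1/16×; solvent blank controls; subirrigated; visual % injury at 14 d.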

[2] = system: Key Grass and Sedge Weeds as well as Grass Crops; assay: Post-emergent Test II herbicidal activity (Table 16); format: in vivo; conditions: post-emergence, 336 h, 14 d; for pest or weed control at 35 g/ha: 35 g ai/ha; for pest or weed control at 70 g/ha: 70 g ai/ha; for pest or weed control at 140 g/ha: 140 g ai/ha
Outline: as §1

[3] = Abutilon theophrasti, velvetleaf (Abutilon theophrasti), read-out: Visual Growth Reduction (%) 14 Days After Application, ABUTH
[4] = Amaranthus retroflexus, redroot pigweed (Amaranthus retroflexus), read-out: Visual Growth Reduction (%) 14 Days After Application, AMARE
[5] = Brassica napus, oilseed rape, canola (Brassica napus), read-out: Visual Growth Reduction (%) 14 Days After Application, BRSNN
[6] = Chenopodium album, lambsquarters (Chenopodium album), read-out: Visual Growth Reduction (%) 14 Days After Application, CHEAL
[7] = Euphorbia heterophylla, wild poinsettia (Euphorbia heterophylla), read-out: Visual Growth Reduction (%) 14 Days After Application, EPHHL
[8] = Helianthus annuus, sunflower (Helianthus annuus), read-out: Visual Growth Reduction (%) 14 Days After Application, HELAN
[9] = Cyperus esculentus, yellow nutsedge (Cyperus esculentus), read-out: Visual Growth Reduction (%) 14 Days After Application, CYPES
[10] = Echinochloa crus-galli, barnyardgrass (Echinochloa crus-galli), read-out: Visual Growth Reduction (%) 14 Days After Application, ECHCG
[11] = Oryza sativa, rice (Oryza sativa), read-out: Visual Growth Reduction (%) 14 Days After Application, ORYSA
[12] = Setaria faberi, giant foxtail (Setaria faberi), read-out: Visual Growth Reduction (%) 14 Days After Application, SETFA
[13] = Triticum aestivum, wheat, spring (Triticum aestivum), read-out: Visual Growth Reduction (%) 14 Days After Application, TRZAS
[14] = Zea mays, maize, corn (Zea mays), read-out: Visual Growth Reduction (%) 14 Days After Application, ZEAMX

| Compound | melting point [°C] | pest or weed control at 35 g/ha [1, 3] [%] | pest or weed control at 70 g/ha [1, 3] [%] | pest or weed control at 140 g/ha [1, 3] [%] | pest or weed control at 35 g/ha [1, 4] [%] | pest or weed control at 70 g/ha [1, 4] [%] | pest or weed control at 140 g/ha [1, 4] [%] | pest or weed control at 35 g/ha [1, 5] [%] | pest or weed control at 70 g/ha [1, 5] [%] | pest or weed control at 140 g/ha [1, 5] [%] | pest or weed control at 35 g/ha [1, 6] [%] | pest or weed control at 70 g/ha [1, 6] [%] | pest or weed control at 140 g/ha [1, 6] [%] | pest or weed control at 35 g/ha [1, 7] [%] | pest or weed control at 70 g/ha [1, 7] [%] | pest or weed control at 140 g/ha [1, 7] [%] | pest or weed control at 35 g/ha [1, 8] [%] | pest or weed control at 70 g/ha [1, 8] [%] | pest or weed control at 140 g/ha [1, 8] [%] | pest or weed control at 35 g/ha [2, 9] [%] | other results |
| --- | --- | --- | --- | --- | --- | --- | --- | --- | --- | --- | --- | --- | --- | --- | --- | --- | --- | --- | --- | --- | --- |
| Nc1nc(-c2ccc(Cl)c3occc23)nc(C(=O)O)c1Cl [Compound 2.23] | 173 to 174.5 | 0 to 29 | 0 to 29 | 0 to 29 | 95 to 100 | 95 to 100 | 95 to 100 | 0 to 29 | 0 to 29 | 0 to 29 | 95 to 100 | 95 to 100 | 95 to 100 | 0 to 29 | 0 to 29 | 0 to 29 | 85 to 94 | 95 to 100 | 95 to 100 | 0 to 29 | pest or weed control at 70 g/ha [2, 9]: 0 to 29%; pest or weed control at 140 g/ha [2, 9]: 0 to 29%; pest or weed control at 35 g/ha [2, 10]: 0 to 29%; pest or weed control at 70 g/ha [2, 10]: 0 to 29%; pest or weed control at 140 g/ha [2, 10]: 0 to 29%; pest or weed control at 35 g/ha [2, 11]: 0 to 29%; pest or weed control at 70 g/ha [2, 11]: 0 to 29%; pest or weed control at 140 g/ha [2, 11]: 0 to 29%; pest or weed control at 35 g/ha [2, 12]: 0 to 29%; pest or weed control at 70 g/ha [2, 12]: 0 to 29%; pest or weed control at 140 g/ha [2, 12]: 0 to 29%; pest or weed control at 35 g/ha [2, 13]: 0 to 29%; pest or weed control at 70 g/ha [2, 13]: 0 to 29%; pest or weed control at 140 g/ha [2, 13]: 0 to 29%; pest or weed control at 35 g/ha [2, 14]: 0 to 29%; pest or weed control at 70 g/ha [2, 14]: 0 to 29%; pest or weed control at 140 g/ha [2, 14]: 0 to 29% |
| COC(=O)c1nc(-c2ccc(Cl)c3ccoc23)c(F)c(N)c1Cl [Compound 2.24] | 167 | 75 to 84 | 75 to 84 | 95 to 100 | 95 to 100 | 95 to 100 | 95 to 100 | 60 to 74 | 75 to 84 | 75 to 84 | 95 to 100 | 95 to 100 | 95 to 100 | 60 to 74 | 75 to 84 | 75 to 84 | 75 to 84 | 75 to 84 | 85 to 94 | 60 to 74 | pest or weed control at 70 g/ha [2, 9]: 75 to 84%; pest or weed control at 140 g/ha [2, 9]: 85 to 94%; pest or weed control at 35 g/ha [2, 10]: 0 to 29%; pest or weed control at 70 g/ha [2, 10]: 0 to 29%; pest or weed control at 140 g/ha [2, 10]: 0 to 29%; pest or weed control at 35 g/ha [2, 11]: 0 to 29%; pest or weed control at 70 g/ha [2, 11]: 0 to 29%; pest or weed control at 140 g/ha [2, 11]: 0 to 29%; pest or weed control at 35 g/ha [2, 12]: 0 to 29%; pest or weed control at 70 g/ha [2, 12]: 0 to 29%; pest or weed control at 140 g/ha [2, 12]: 0 to 29%; pest or weed control at 35 g/ha [2, 13]: 0 to 29%; pest or weed control at 70 g/ha [2, 13]: 0 to 29%; pest or weed control at 140 g/ha [2, 13]: 0 to 29%; pest or weed control at 35 g/ha [2, 14]: 0 to 29%; pest or weed control at 70 g/ha [2, 14]: 30 to 44%; pest or weed control at 140 g/ha [2, 14]: 60 to 74% |
